Measured values taken from PubChem BioAssay AID179 (DTP/NCI, 2004).
The source made the active and inactive calls.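 The calls were made as follows: active = compounds giving half or more protection of infected cells from virus-caused growth loss, again on retest; inactive = the rest.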

Test system: CEM cells HIV-1 protection, formazan growth assay
Test: NCI AIDS Antiviral Assay
Settings: for IC50: measured here: growth of uninfected CEM cells
How it was run: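 Soluble formazan readout of cell growth; CEM cells ± HIV-1; 5 drug concs. ≥50% protection → retest; ≥50% again = moderately active; reproducible 100% = confirmed active.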

SMILES	EC50 [µM]	IC50 [µM]	outcome
CN1CCc2sccc2C(c2ccccc2)O1 (stereo unspecified)	> 708	275	
C/C(=N/N=C(\[O-])c1ccncc1)C(F)(F)F.C/C(=N\N=C(/[O-])c1ccncc1)C(F)(F)F.[Cu+2]	> 200	18.2	
CC1=NN(C2=NS(=O)(=O)c3ccccc3N2C)C(=O)C1	> 123	> 123	
O=S1(=O)C=C(c2ccccc2)C2(c3ccccc3)C=NNC21 (stereo unspecified)	> 200	> 200	
Cc1ccnc2c1C(=O)C(=O)C=C2N1CCCC1			inactive
CCOC(=O)C(=O)Nc1nc2ccc(OC)cc2s1	> 447	> 447	
CC(C)/C(Cl)=N/OC(=O)Nc1ccc(Cl)c(Cl)c1	> 20	3.16	
Cc1ccccc1NC(=O)O/N=C(\Cl)C(C)C	> 20	3.16	
C=CCn1c(N)c(N=O)c(=O)n(CC)c1=O	> 200	> 200	
COc1cc2c(cc1O)C(=O)OC1CC=C3CC[N@@+](C)([O-])[C@H]3C21 (stereo partly specified)	> 195	> 195	
CN1C(=O)N/C(=N/c2nc(Cc3ccc4c(c3)OCO4)cn2C)C1=O	> 1.58	> 1.58	
O=c1nc2sc3ccccc3c(=O)n2[nH]1	> 204	77.6	
O.O.O=C(O)C(=O)O.O=C(O)C(=O)O.[Cu]	> 200	20.9	
Cn1nc(Cc2ccc(Cl)cc2)n(N)c1=O	> 200	> 200	
CC(C(=O)O)c1ccc2c(c1)Cc1ccccc1-2 (stereo unspecified)	> 200	> 200	
COC(=O)C1CC2C=CC=CC(=O)C2(C)C1 (stereo unspecified)	> 251	33.1	
O=C(Nc1ccccc1Cl)c1cc2cc(N=Nc3ccc(Br)cc3)ccc2oc1=O			inactive
CCCCOC(=O)C1CC2OC2CC1C(=O)OCCOCCOC(=O)C1CC2OC2CC1C(=O)OCCCC (stereo unspecified)	> 200	51.3	
CCCC/C=C\CCCCCCCCCC1=C(O)C(=O)C=C(OC)C1=O	> 55	9.33	
CC1CN=C(Nc2ccc(F)c(Cl)c2)S1 (stereo unspecified)	> 200	132	
Cc1ncc([N+](=O)[O-])n1CCNC(=O)CCCCCn1ccnc1[N+](=O)[O-]			inactive
Cc1cc2cc3ccc4cccc5ccc(c2oc1=O)c3c45			inactive

SMILES	EC50 [µM]	IC50 [µM]	outcome
Cc1ncc([N+](=O)[O-])n1CCNC(=O)Cn1c([N+](=O)[O-])cnc1C	> 200	> 200	
COc1ccc(C2c3cc4c(cc3OC(N3CCOCC3)C2C)OCO4)c(OC)c1OC (stereo unspecified)	> 200	9.55	
O=C(CC(=O)N(C(=O)c1ccccc1)c1ccc(Cl)cc1)N/N=C\c1ccccc1O	> 200	> 200	
Clc1ccc(C(SCc2ccccc2)SCc2ccccc2)cc1	> 200	> 200	
COc1cc(OC)cc(-n2c(N)c(C#N)c3ccc([N+](=O)[O-])cc3c2=O)c1	> 200	> 200	
Cn1cnc([N+](=O)[O-])c1Sc1nc2ncccc2[nH]1	> 912	21.9	
Cc1ccc(C2SCC(=O)N2c2ccc(-n3c(-c4ccccc4)nc4ccccc4c3=O)cc2)cc1 (stereo unspecified)	> 200	10.7	
CC(=O)OCC1OC(Nc2nncs2)C(OC(C)=O)C1OC(C)=O (stereo unspecified)	> 692	562	
CC[N+]1(C)CSC(=S)N(C)C1 (stereo unspecified)	> 200	75.9	
C/C(=N\N=C(N)N)C(CN1CCCCC1)C(c1ccccc1)c1c(O)c2ccccc2oc1=O (stereo unspecified)	> 52.5	> 52.5	
C/C(=N\Nc1ccc([N+](=O)[O-])cc1[N+](=O)[O-])c1ccc2ccccc2n1	182	> 200	
CCOC(=O)CSc1[nH]c(NC(=S)Nc2ccccc2)c(C(N)=O)c1C(N)=O	> 200	97.7	
S=C1CC(c2ccc(Cl)cc2)Sc2ccccc2N1 (stereo unspecified)	> 200	138	
CCOC(=O)NC(=O)c1cn(CCCCCCOC(=O)NCCCCCCNC(=O)OCCCCCCn2cc(C(=O)NC(=O)OCC)c(=O)[nH]c2=O)c(=O)[nH]c1=O			inactive
CC(=O)Nc1ccc(Nc2nc(=O)[nH]c(=O)[nH]2)cc1	> 200	> 200	
CCN(CC)CCOC(=O)c1cc2cc([N+](=O)[O-])ccc2oc1=O	> 214	> 214	
CC(=N/NC(=S)N1CCCCC1)/C(=N\NC(=S)N1CCCCC1)c1ccccc1	> 200	3.55	
COC(=O)C1=C(OC)C(C(=O)OC)[C@@]2(C)C(C(=O)OC)=C(OC)C(C(=O)OC)[C@@]12C (stereo partly specified)	> 417	> 417	
Cc1ccc(S(=O)(=O)OI(O)CC(F)(F)F)cc1	> 200	> 200	
C[S+](C)CC(=O)c1ccc2c(c1)Sc1ccccc1O2	> 100	2.04	
Cc1c(-c2c(C)c(=O)c3c(C(C)C)c(=O)c(=O)c(C=O)c-3c2=O)c(O)c2c(C=O)c(O)c(O)c(C(C)C)c2c1O	> 13.2	7.08	
Cc1ccc(Nc2nc(NS(=O)(=O)c3cc(C)c(Cl)cc3S)n[nH]2)cc1	> 191	178	

SMILES	EC50 [µM]	IC50 [µM]	outcome
COc1cc2cc(C(=O)N3CC(CCl)c4ccc(N(C)C)cc43)[nH]c2c(OC)c1OC (stereo unspecified)	> 2	0.138	
O=C(c1ccccc1)C1N=NN(Cc2ccccc2[N+](=O)[O-])C1C(=O)c1ccccc1 (stereo unspecified)	> 4.79	> 4.79	
CCN(CC)Cc1nc2sc3c(c2c(=O)n1-c1ccccc1)CCCC3	> 200	39.8	
O=[N+]([O-])c1cccnc1SSc1ncccc1[N+](=O)[O-]	> 200	97.7	
COc1cccc(C2CC(C)=Nc3c(ccc4c3C(=O)c3ccccc3C4=O)N2)c1O (stereo unspecified)	> 9.12	> 9.12	
CC1CN(c2ccc(Cl)cc2)CC(C)OC(=O)O1 (stereo unspecified)			inactive
O=c1[nH]c(-c2ccc([N+](=O)[O-])cc2)nc2ccc(Cl)cc12			inactive
Cc1cc(N)c2cc(NC(=O)CCCCCCCCC(=O)Nc3ccc4nc(C)cc(N)c4c3)ccc2n1			inactive
CCS(=O)c1c2cc(OC)ccc2nc2ccc(OC)cc12 (stereo unspecified)	> 200	1.38	
CN1C(=O)CCCCCCCCCCSc2ccccc21	> 200	40.7	
COc1cc2c(cc1OC)OC(c1c(OC)ccc(OC)c1O)CC2 (stereo unspecified)	> 100	> 100	
CCOC(=S)SSSC(=S)OCC	> 110	34.7	
CCOC(=O)CC1(C)SCCN1C(=O)OCC (stereo unspecified)	> 200	> 200	
O=C(c1ccc(NCN2C(=O)CCC2=O)cc1)c1ccc(NCN2C(=O)CCC2=O)cc1	> 30.2	> 30.2	
Cn1c(=O)c2nc3c(nc2n(C)c1=O)oc1ccccc13			inactive
CCCc1cc(=O)oc2c3c(c4c(c12)OC(C)(C)CC4)O[C@H](C)C(C)C3O (stereo partly specified)	> 200	25.1	
CC(=O)Nc1cc(C)ccc1Cl	> 1350	> 1350	
Cc1cccc2c(NCCC[N+](C)(C)[O-])c3c([N+](=O)[O-])ccc(C)c3nc12	> 100	0.372	
Cc1ccc2nc(C=Nc3ccc(Cl)cc3)cc(C)c2c1			inactive
CC1C(c2ccccc2)SC(=N)N1C (stereo unspecified)	> 417	257	
COc1cc2ccc1OCc1cccc(n1)COc1ccc(cc1OC)C=Nc1ccc(cc1)N=C2	> 200	> 200	
O=C(O)CN(c1ccccc1)S(=O)(=O)c1ccc(NC(=O)c2ccccc2)cc1			inactive
